According to BindingDB's records for doi:10.1021/jm00011a020 (H. Lundbeck, 1995):

The compounds below were run against Sigma-2 receptor (TMEM97) (Rattus norvegicus) (assay: Binding affinity towards Sigma receptor site 2 in rat brain using [3H]DTG as radioligand).

Structure (SMILES) | IC50
c1ccc(CCN2CCC3(CC2)OCc2ccccc23)cc1 [1'-(2-phenylethyl)-3H-spiro[2-benzofuran-1,4'-piperidine]] | 2.9 nM
Fc1ccc(-n2cc(CCCCN3CCC4(CC3)OCc3c(C(F)(F)F)cccc34)c3ccccc32)cc1 [1'-{4-[1-(4-fluorophenyl)-1H-3-indolyl]butyl}-4-trifluoromethylspiro[1,3-dihydroisobenzofuran-1,4'-(hexahydropyridine)]] | 2.6 nM
Fc1ccc(-n2cc(CCCCN3CCC4(CC3)Cc3ccccc3CO4)c3ccccc32)cc1 [1'-{4-[1-(4-fluorophenyl)-1H-3-indolyl]butyl}spiro[3,4-dihydro-1H-isochromene-3,4'-(hexahydropyridine)]] | 1.1 nM
Fc1ccc(-n2cc(CCCCN3CCC4(CC3)COc3ccccc34)c3ccccc32)cc1 [1'-{4-[1-(4-fluorophenyl)-1H-3-indolyl]butyl}spiro[2,3-dihydrobenzo[b]furan-3,4'-(hexahydropyridine)]] | 12 nM
Fc1ccc(-n2cc(CCCCN3CCC4(CC3)COc3ccccc3C4)c3ccccc32)cc1 [1'-{4-[1-(4-fluorophenyl)-1H-3-indolyl]butyl}spiro[3,4-dihydro-2H-chromene-3,4'-(hexahydropyridine)]] | 250 nM
Fc1ccc(-n2cc(CCCCN3CCC4(CC3)OCc3cccc(F)c34)c3ccccc32)cc1 [1-[1-(4-fluorophenyl)-1H-3-indolyl]-4-[7-fluorospiro[1,3-dihydroisobenzofuran-1,4'-(hexahydropyridine)]-1-yl]butane] | 0.58 nM
Fc1ccc(-n2cc(CCCCN3CCC4(CC3)SCc3ccccc34)c3ccccc32)cc1 [1'-{4-[1-(4-fluorophenyl)-1H-3-indolyl]butyl}spiro[1,3-dihydrobenzo[c]thiophene-1,4'-(hexahydropyridine)]] | 0.14 nM
c1ccc2c(c1)COC21CCN(CCCCC2CCCCC2)CC1 [1'-(cyclohexylbutyl)-3H-spiro[2-benzofuran-1,4'-piperidine]] | 0.07 nM
Fc1ccc(-n2cc(CCCCN3CCC4(CC3)OCc3c(F)cccc34)c3ccccc32)cc1 [1-[1-(4-fluorophenyl)-1H-3-indolyl]-4-[4-fluorospiro[1,3-dihydroisobenzofuran-1,4'-(hexahydropyridine)]-1-yl]butane] | 1.8 nM
Fc1ccc(-n2cc(CCCCN3CCC4(CC3)Cc3ccccc3O4)c3ccccc32)cc1 [1'-{4-[1-(4-fluorophenyl)-1H-3-indolyl]butyl}spiro[2,3-dihydrobenzo[b]furan-2,4'-(hexahydropyridine)]] | 340 nM
Fc1ccc(-n2cc(CCCCN3CCC4(CC3)COCc3ccccc34)c3ccccc32)cc1 [1'-{4-[1-(4-fluorophenyl)-1H-3-indolyl]butyl}spiro[3,4-dihydro-1H-isochromene-4,4'-(hexahydropyridine)]] | 0.34 nM
c1ccc2c(c1)COC21CCN(CCCOC2CCCCC2)CC1 [1'-(3-cyclohexyloxypropyl)-3H-spiro[2-benzofuran-1,4'-piperidine]] | 0.07 nM
Fc1ccc(-n2cc(CCCCN3CCC4(CC3)OCCc3ccccc34)c3ccccc32)cc1 [1'-{4-[1-(4-fluorophenyl)-1H-3-indolyl]butyl}spiro[3,4-dihydro-1H-isochromene-1,4'-(hexahydropyridine)]] | 0.9 nM
Fc1ccc(-n2cc(CCCCN3CCC4(CCOc5ccccc54)CC3)c3ccccc32)cc1 [1'-{4-[1-(4-fluorophenyl)-1H-3-indolyl]butyl}spiro[3,4-dihydro-2H-chromene-4,4'-(hexahydropyridine)]] | 3 nM
Fc1ccc(-n2cc(CCCCN3CCC4(CC3)Oc3ccccc3O4)c3ccccc32)cc1 [1'-{4-[1-(4-fluorophenyl)-1H-3-indolyl]butyl}spiro[benzo[d][1,3]dioxole-2,4'-(hexahydropyridine)]] | 270 nM
